For four compounds, IC50 results are on record in patent US20030187037A1, “Acetamide derivatives and the use thereof as inhibitors of coagulation factors xa and viia” (priority 2000, published 2003).

In one experiment the target is factor Xa, human (Homo sapiens, UniProt P00742). In words: Inhibition of factor Xa (IC50, headed 'Affinity to Receptors'). It is filed as biochemical. The text has this:
The inhibition of factor Xa by the compounds according to the invention and the measurement of the anticoagulant and antithrombotic activity can be determined by conventional in-vitro or in-vivo methods. A suitable method is described, for example, by J. Hauptmann et al. in Thrombosis and Haemostasis 1990, 63, 220-223.
The inhibition of factor Xa can be measured, for example, by the method of T. Hara et al. in Thromb. Haemostas. 1994, 71, 314-319.

Another experiment has as its target TF/VIIa (Homo sapiens, UniProt P08709). In words: Inhibition of TF/VIIa (IC50, headed 'Affinity to Receptors'). The class given is biochemical. The text has this:
The inhibition of factor VIIa by the compounds according to the invention and the measurement of the anticoagulant and antithrombotic activity can be determined by conventional in-vitro or in-vivo methods. A conventional method for the measurement of the inhibition of factor VIIa is described, for example, by H. F. Ronning et al. in Thrombosis Research 1996, 84, 73-81.

factor Xa, human, sequence (P00742 235-488 limits assumed): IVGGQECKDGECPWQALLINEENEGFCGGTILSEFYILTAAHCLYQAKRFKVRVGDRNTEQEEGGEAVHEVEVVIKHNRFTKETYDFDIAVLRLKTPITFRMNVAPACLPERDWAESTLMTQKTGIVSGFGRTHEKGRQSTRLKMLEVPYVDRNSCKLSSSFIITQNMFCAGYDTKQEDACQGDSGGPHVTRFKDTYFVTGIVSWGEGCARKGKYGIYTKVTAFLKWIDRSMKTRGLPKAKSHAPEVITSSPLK
factor Xa, human, sequence (P00742 41-179 partner limits assumed): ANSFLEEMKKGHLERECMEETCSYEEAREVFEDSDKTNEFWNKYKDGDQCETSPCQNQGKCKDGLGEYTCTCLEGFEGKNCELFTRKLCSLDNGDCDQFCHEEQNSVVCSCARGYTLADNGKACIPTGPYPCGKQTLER
TF/VIIa, sequence (P08709 213-466 limits assumed): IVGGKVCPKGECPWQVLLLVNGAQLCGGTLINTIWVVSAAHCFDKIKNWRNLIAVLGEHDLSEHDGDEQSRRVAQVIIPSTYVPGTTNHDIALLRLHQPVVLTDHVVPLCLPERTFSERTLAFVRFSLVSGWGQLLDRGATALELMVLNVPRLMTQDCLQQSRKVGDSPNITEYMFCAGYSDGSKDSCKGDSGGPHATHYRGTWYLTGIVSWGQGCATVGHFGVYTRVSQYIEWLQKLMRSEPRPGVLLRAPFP
TF/VIIa, sequence (P08709 61-212 partner limits assumed): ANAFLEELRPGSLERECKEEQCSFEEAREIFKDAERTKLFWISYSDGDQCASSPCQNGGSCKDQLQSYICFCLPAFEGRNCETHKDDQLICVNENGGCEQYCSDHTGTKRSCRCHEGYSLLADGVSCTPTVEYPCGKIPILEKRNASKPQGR
TF/VIIa, sequence (P13726 33-295 partner): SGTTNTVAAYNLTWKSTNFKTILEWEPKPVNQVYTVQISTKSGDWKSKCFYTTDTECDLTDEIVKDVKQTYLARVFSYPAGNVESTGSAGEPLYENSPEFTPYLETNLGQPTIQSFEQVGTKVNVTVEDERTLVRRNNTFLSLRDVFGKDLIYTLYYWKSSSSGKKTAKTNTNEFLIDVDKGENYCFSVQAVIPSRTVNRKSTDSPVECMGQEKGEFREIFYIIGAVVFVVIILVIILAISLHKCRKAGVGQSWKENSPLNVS

Usually IC50 stands for the concentration needed to halve the response being measured. A lower IC50 goes with greater potency. Consider `N=C(N)c1cccc(CN(C(=O)Cc2ccc(-c3ccccc3S(N)(=O)=O)cc2)c2ccccc2)c1` [N-(3-amidinobenzyl)-N-phenyl-2-(2′-sulfamoylbiphenyl-4-yl)acetamide], for which the IC50 turned out to be 2 µM against factor Xa, human and 1.5 µM against TF/VIIa.
Turning to `CCCN(Cc1cccc(C(=N)N)c1)C(=O)Cc1ccc(-c2ccccc2S(N)(=O)=O)cc1` [Example 3.3, N-3-amidinobenzyl-N-propyl-2-(2′-sulfamoylbiphenyl-4-yl)acetamide], the concentration for half-maximal inhibition (IC50) is 2 µM on factor Xa, human and 0.9 µM at TF/VIIa.
`CS(=O)(=O)c1ccccc1-c1ccc(CC(=O)N(Cc2cccc(C(=N)N)c2)c2ccccc2)cc1` [N-(3-amidinobenzyl)-N-phenyl-2-(2′-methylsulfonylbiphenyl-4-yl)acetamide]: the IC50 at factor Xa, human was found to be 0.55 µM; at TF/VIIa, 0.65 µM.
Taken in the same sequence, the figures for `CCCN(Cc1cccc(C(=N)N)c1)C(=O)Cc1ccc(-c2ccccc2S(C)(=O)=O)cc1` [Example 4.3, N-(3-amidinobenzyl)-N-propyl-2-(2′-methylsulfonylbiphenyl-4-yl)acetamide] were 1 µM and 0.7 µM.
